{"source": "patent US6841535B2", "about": "“Peptide-mediated transfection agents and methods of use” (Active Motif, priority 2000, dated 2005)", "type_in_all_cases": "cell-based", "key": {"[1]": {"system": "human fibroblastic cell line (HS-68) and Cos-7", "assay": "Pep-2-mediated delivery of GFP and β-Gal proteins into cells", "description": "The efficiency of transfection was determined by counting fluorescent cells or blue stained cells. (A) Control of beta gal in the absence of Pep-2, (B) Pep-2 delivery of beta gal at 37 degrees C., (C) Pep-2 delivery of beta gal at 4 degrees C., (D) Pep-2 delivery of GFP at 37 degrees C. (E) concentration dependent Pep-2 delivery of GFP. Experiments were performed in the absence (open bars) or presence (dark bars) of serum.\nWe next evaluated the ability of Pep-2 to deliver peptides and LMW and HMW proteins into a human fibroblastic cell line (HS-68) and Cos-7. FITC-labeled Pep-A (51-mer) and Pep-B (32-mer) at a concentration of 5 10^−8 M were incubated with different concentrations of Pep-2 from 5 10^−8 M (ratio 1/1) to 2 10^−6 M (ratio 40/1), in serum-free cell culture medium for 30 minutes at 37° C. Cultured cells 0.5 to 1×10^6/35 mm^2 were then overlaid with the preformed Pep-2/peptide complexes for 30 minutes in the presence or absence of FCS. Complexes were formed prior to addition of FCS to avoid interactions between Pep-2 and serum proteins. Following this transfection step, fresh DMEM supplemented with serum was added to the cells for another 30 minutes, after which cells were extensively washed, and examined by fluorescence microscopy. […] Conversely, we observed a large decrease in the efficiency of transfection at a ratio greater than 30/1, which may be explained by either precipitation or aggregation of Pep-2/peptide complexes to the cell membrane. […] Finally, we evaluated the effect of serum in the cell culture medium on the efficiency of peptide transfection.\nTo investigate protein delivery we chose to monitor cell delivery of three very different types of proteins: 30 kDa GFP, 119 kDa β-Gal, and specific antibodies. […] Cells were then extensively washed prior to observation and the efficiency of protein delivery was determined by counting fluorescent cells or by monitoring enzymatic β-galactosidase activity by X-Gal staining. […]"}, "[2]": {"system": "HS-68 and NIH 3T3 cell lines", "assay": "Protein delivery by vector peptides (GFP)", "details": "transfection of GFP; incubated with peptide at a molar ratio of 1:20; 1 h", "description": "(§1) We evaluated the ability of peptides designed according to principles described herein, as well as variants thereof, to deliver peptides and proteins into HS-68 and NIH 3T3 cell lines. Peptide delivery was performed with a 32 mer peptide (peptide B), and in some cases a […] peptide (peptide A). The peptides were fluorescently labeled. Peptides (5.0×10^−8M or 5.0×10^−7M) were incubated with one micromolar vector peptide in cell culture medium in the absence of serum for 30 min. Cultured cells (0.5 to 1.0×10^6) were then overlaid with the preformed peptide/vector peptide complexes in 500 μL DMEM for one hour in the presence or absence of FCS. Complexes were formed prior to addition of FCS to avoid interactions between ep-vector and serum proteins. Following this transfection step, fresh DMEM supplemented with serum was added for another hour. Then cells were extensively washed, fixed and analyzed by fluorescence microscopy.\nTo investigate protein delivery we tested the delivery into cells of the fluorescent protein GFP. The protein was incubated with peptide at a molar ratio of 1:20, followed by overlay of the complex onto cultured cells. This was followed by incubation for 1 h. Then cells were extensively washed and fixed with formalin before observation.\n(§2) The results of the experiments testing the transfection properties of the peptides are presented as a table in which the sequences are aligned for optimal comparison: […]"}, "[3]": {"system": "Jurkat T and WI 38 cells", "assay": "Pep-2 delivery of p27(kip1), cell cycle arrest in G1 (FACS, BrDu)", "details": "Pep-2 alone", "description": "The number of cells in the G1 phase was determined by BrDU incorporation.\nThe number of cells in the G1 phase was determined by FACs analysis.\np27(kip1) was expressed in E coli, and purified as a his-tagged protein. Pep-2/p27kip1 complexes were formed in PBS (500 μl of DMEM containing 50 nM of protein and 0.1 μM of Pep-2) and incubated for 30 min at 37° C. Jurkat T and WI 38 cells grown to 75% confluency were then overlaid with these preformed complexes. After 1 hr incubation at 37° C., fresh DMEM supplemented with 10% foetal calf serum was added to the cells, without removing the overlay of Pep-2/p27^Kip1, and cells were returned to the incubator for another 30 h. Experiments were performed on both non-synchronized and synchronized cells. The number of cells arrested in G1 was determined both by FACS analysis and BrDu incorporation."}, "[4]": {"system": "human HS68, murine NIH 3T3 fibroblasts or cos cells", "assay": "Cellular localization of Pep-2", "details": "standard cell culture conditions; same at 4° C. or with okadaic acid", "description": "The rationale in the design of the novel peptide vector, Pep-2, for efficient protein delivery into cells was to satisfy two major requirements: the ability to cross cell membranes and high affinity for protein sequences. To this aim, we elaborated a 21 residue peptide, designated Pep-2 ([…]-cya; SEQ ID NO:7), consisting of three domains: (1) a hydrophobic Trp-rich motif containing five Trp-residues (KETWWETWWTEW (SEQ ID NO:32)), required for efficient targeting to the cell membrane and for forming hydrophobic interactions with proteins, (2) a hydrophilic Lys-rich domain (KKKRKV (SEQ ID NO:33)) derived from the NLS of SV40 large T antigen, required to improve intracellular delivery and solubility of the peptide vector, and (3) a spacer domain (Ser-Gln-Pro), separating the two domains mentioned above, containing a Pro residue, which improves the flexibility and the integrity of both the hydrophobic and the hydrophilic domains. Peptides were acetylated at their N-terminus and synthesized with a cysteamine group at their C-terminus, so as to enable coupling of fluorescent probes (for example, FITC), useful for cellular localization of the peptide. We first investigated the ability of Pep-2 to penetrate into cells and characterized its subcellular localization. […]"}, "[5]": {"system": "HS-68 and NIH 3T3 cell lines", "assay": "Peptide delivery by vector peptides (fluorescently labeled peptide B / peptide A)", "details": "transfection of fluorescently labeled peptide; one micromolar vector peptide; 1 h", "description": "as §1, §2"}, "[6]": {"system": "human fibroblastic cell line (HS-68) and Cos-7", "assay": "Pep-2-mediated delivery of FITC-labeled peptides into cells", "description": "(A) Pep-2-mediated delivery of Pep-A at 37 degrees C., (B) Pep-2-mediated delivery of Pep-B at 37 degrees C., (C) Pep-2-mediated delivery of Pep-A at 4 degrees C., (D) concentration dependence of Pep-2-mediated delivery of Pep-A. The efficiency of transfection was determined by counting fluorescent cells. Experiments were performed in the presence (dark bars) or absence (open bars) of serum and at 4 degrees C. (dashed bars).\nWe next evaluated the ability of Pep-2 to deliver peptides and LMW and HMW proteins into a human fibroblastic cell line (HS-68) and Cos-7. FITC-labeled Pep-A (51-mer) and Pep-B (32-mer) at a concentration of 5 10^−8 M were incubated with different concentrations of Pep-2 from 5 10^−8 M (ratio 1/1) to 2 10^−6 M (ratio 40/1), in serum-free cell culture medium for 30 minutes at 37° C. Cultured cells 0.5 to 1×10^6/35 mm^2 were then overlaid with the preformed Pep-2/peptide complexes for 30 minutes in the presence or absence of FCS. Complexes were formed prior to addition of FCS to avoid interactions between Pep-2 and serum proteins. Following this transfection step, fresh DMEM supplemented with serum was added to the cells for another 30 minutes, after which cells were extensively washed, and examined by fluorescence microscopy. […] Finally, we evaluated the effect of serum in the cell culture medium on the efficiency of peptide transfection."}, "[7]": {"system": "HS-68 and NIH 3T3 cell lines", "assay": "Drug delivery by vector peptides (ANS and Bis-ANS)", "details": "transfection of ANS and Bis-ANS; incubated with peptide at a molar ratio of 1:20; 1 h", "description": "For investigation of drug delivery, we used the naphthalene derivatives ANS and Bis-ANS, which have intrinsic fluorescence. The drugs was incubated with peptide at a molar ratio of 1:20, followed by overlay of the complex onto cultured cells. This was followed by incubation for 1 h. Then cells were extensively washed and observed by microscopy.\nas §2"}}}
{"sequence": "KETWWETWWTEWSQPKKKRKV [Pep-2]", "values": [{"measurement": "effect of 10% FCS on efficiency of protein delivery", "setting": "[1]", "result": "not affected"}, {"measurement": "cells containing fluorescent GFP staining in their cytoplasm", "setting": "[1]; 37 degrees C.", "result": "more than 80%"}, {"measurement": "cells exhibiting strong and uniform β-Gal activity", "setting": "[1]; X-Gal staining", "result": "All cells"}, {"measurement": "Pro", "setting": "[2]", "result": 5, "unit": "%"}, {"measurement": "effect on cell cycle progression", "setting": "[3]", "result": "no effect on cell cycle progression"}, {"measurement": "subcellular localization", "setting": "[4]", "result": "nucleus"}, {"measurement": "Pep", "setting": "[5]", "result": 5, "unit": "%"}, {"measurement": "effect of serum (FCS 10%) on efficiency of peptide delivery", "setting": "[6]", "result": "not affected"}, {"measurement": "cells with internalized fluorescent peptide localized to the nucleus", "setting": "[6]; Pep-2/Pep-A molar ratio of 20/1", "result": "more than 90%"}, {"measurement": "Drug", "setting": "[7]", "result": 5, "unit": "%"}]}
